Experimental data from patent US20260284086A1, “PHARMACEUTICAL COMPOSITION FOR TREATMENT OF INFLAMMATORY BOWEL DISEASE” (EA PHARMA CO., LTD., priority 2023, published 2026).
≈ marks a conversion by molar mass, not a printed value. Where two headings read alike, the source gives them in different places.

Key:
[1] = Phase 1 single-dose administration study: plasma concentration of Compound (2) by LC/MS/MS after oral Compound (1); format: in vivo, human; settings: Compound (1) 200 mg C-SEDDS single oral dose
[2] = Repeated Administration Study 1: L-SEDDS 400 mg once daily for 10 days, plasma Compound (2); format: in vivo, human
Experimental: (§1) This clinical trial was a single-center, randomized, double-blind, placebo-controlled, single and multiple ascending dose study with the primary objective of evaluating the safety and tolerability of Compound (1) when orally administered to healthy adult males.
(§2) Screening tests were conducted within 28 to 3 days before administration of the investigational drug to confirm the eligibility of the subjects, and the subjects were hospitalized 2 days before administration. After hospitalization, tests were conducted from 2 days before administration to the day of administration to confirm that there were no problems with eligibility, and then Compound (1) or placebo was randomly assigned. The subjects in each cohort consisted of 8 people, of which 6 were assigned to Compound (1) and 2 were assigned to placebo, and they were administered the drug.
(§3) Day 8, when repeated administration was started, corresponds to administration day 1 (Day 1), and day 17 corresponds to administration day 10 (Day 10). […]
(§4) The plasma concentration of Compound (2) was measured using a validated measurement method. Specifically, plasma was separated from collected blood and processed, and then the plasma concentration was measured by an LC/MS/MS apparatus.
(§5) For twice-daily administration of C-SEDDS, blood was further collected at 13, 14, 14.5, and 16 hours later to quantify Compound (2).

[3] = Repeated Administration Study 2: C-SEDDS 200 mg twice daily for 10 days, plasma Compound (2); format: in vivo, human
Experimental: as §1, §2, §3, §4, §5

[4] = PK Simulation Analysis 1 by Superposition Method (Phoenix WinNonlin NPS); set-up: species or system human; settings: Compound (1) 50 mg; 2.5 times the 20 mg prediction
Source text: The plasma concentration profile of Compound (2) on day 10 of repeated administration was predicted using the superposition method implemented in the Nonparametric Superposition (NPS) tool of the analysis software Phoenix WinNonlin, applying the single-dose results (Certara L.P.) (FIG. 4).

[5] = PK Simulation Analysis 2 by Superposition Method (200 mg twice daily); set-up: species or system human; settings: Day 10 of repeated administration
Experimental: The plasma concentration of Compound (2) on day 10 of repeated administration at 200 mg twice daily (every 12 hours) was predicted using the superposition method implemented in the Nonparametric Superposition (NPS) tool of the analysis software Phoenix WinNonlin, applying the results of once-daily administration at 200 mg (Certara L.P.) (FIG. 6).

[6] = target: T1, MAdCAM-1 binding of lymphocytes (CD3-positive CD4-positive cells) (Homo sapiens, UniProt P13612+P26010); assay: Ex vivo integrin inhibitory activity: MAdCAM-1 binding inhibition rate of lymphocytes in plasma (flow cytometry); format: cell-based; settings: for IC90: CD4 positive
T1 construct: endogenous in cells; host or cells: CD3-positive CD4-positive lymphocytes in heparinized whole blood of dosed healthy adult males
T1 sequence (P13612 34-1032): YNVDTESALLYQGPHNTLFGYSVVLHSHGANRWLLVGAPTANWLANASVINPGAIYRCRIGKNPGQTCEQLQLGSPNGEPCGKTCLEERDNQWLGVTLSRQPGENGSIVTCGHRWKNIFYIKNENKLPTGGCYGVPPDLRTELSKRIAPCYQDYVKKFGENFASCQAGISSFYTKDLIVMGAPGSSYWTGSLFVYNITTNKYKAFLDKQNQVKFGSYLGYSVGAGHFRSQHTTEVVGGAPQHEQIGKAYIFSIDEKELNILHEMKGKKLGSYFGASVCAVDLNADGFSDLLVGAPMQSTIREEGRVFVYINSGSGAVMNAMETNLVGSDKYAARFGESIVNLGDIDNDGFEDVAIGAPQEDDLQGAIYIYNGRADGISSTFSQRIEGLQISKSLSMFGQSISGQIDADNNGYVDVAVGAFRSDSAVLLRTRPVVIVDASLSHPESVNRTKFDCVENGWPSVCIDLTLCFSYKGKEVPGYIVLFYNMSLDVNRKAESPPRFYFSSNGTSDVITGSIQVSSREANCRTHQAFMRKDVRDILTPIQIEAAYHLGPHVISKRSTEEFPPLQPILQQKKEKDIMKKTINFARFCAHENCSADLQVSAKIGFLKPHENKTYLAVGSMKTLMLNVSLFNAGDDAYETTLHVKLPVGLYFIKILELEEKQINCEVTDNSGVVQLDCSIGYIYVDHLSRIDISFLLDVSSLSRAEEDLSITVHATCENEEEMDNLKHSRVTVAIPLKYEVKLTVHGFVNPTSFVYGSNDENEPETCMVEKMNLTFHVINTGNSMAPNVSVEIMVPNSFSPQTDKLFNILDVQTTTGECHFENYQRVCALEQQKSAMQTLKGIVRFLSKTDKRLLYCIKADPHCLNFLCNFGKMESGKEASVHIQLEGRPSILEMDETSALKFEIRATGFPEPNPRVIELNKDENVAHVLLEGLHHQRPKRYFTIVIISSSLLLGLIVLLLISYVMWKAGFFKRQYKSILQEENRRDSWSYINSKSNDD
T1 sequence (P26010 20-798): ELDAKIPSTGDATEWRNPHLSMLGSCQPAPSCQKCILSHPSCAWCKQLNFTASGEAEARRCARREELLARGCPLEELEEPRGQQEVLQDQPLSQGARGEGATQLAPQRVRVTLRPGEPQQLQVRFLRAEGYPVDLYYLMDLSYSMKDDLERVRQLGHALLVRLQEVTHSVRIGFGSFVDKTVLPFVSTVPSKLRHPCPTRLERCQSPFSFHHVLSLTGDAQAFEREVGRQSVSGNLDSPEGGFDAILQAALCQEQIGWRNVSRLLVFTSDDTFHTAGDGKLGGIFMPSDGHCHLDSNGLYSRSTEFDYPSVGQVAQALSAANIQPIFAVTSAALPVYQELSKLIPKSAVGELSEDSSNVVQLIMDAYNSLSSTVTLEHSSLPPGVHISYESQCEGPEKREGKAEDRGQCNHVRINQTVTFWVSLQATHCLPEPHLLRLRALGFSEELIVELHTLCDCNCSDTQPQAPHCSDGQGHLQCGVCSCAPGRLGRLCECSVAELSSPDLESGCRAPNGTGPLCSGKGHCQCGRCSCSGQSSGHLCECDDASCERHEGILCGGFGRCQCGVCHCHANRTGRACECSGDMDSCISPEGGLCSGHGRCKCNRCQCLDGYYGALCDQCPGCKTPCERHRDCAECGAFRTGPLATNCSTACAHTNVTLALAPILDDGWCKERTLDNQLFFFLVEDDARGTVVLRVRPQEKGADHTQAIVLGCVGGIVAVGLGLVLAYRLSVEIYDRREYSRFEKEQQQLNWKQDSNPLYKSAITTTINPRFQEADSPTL
Experimental: [MAdCAM-1 Binding Inhibition Rate (PD) of Lymphocytes in Plasma and IC90, IC50]
The MAdCAM-1 binding rate of lymphocytes in plasma was measured using a validated measurement method using the obtained blood samples, and the MAdCAM-1 binding inhibition rate of lymphocytes in plasma was calculated using Excel. Specifically, 5 μL of an 80 mM MnCl2 solution was added to 90 μL of heparinized blood and incubated at room temperature for 10 minutes. A volume of 5 μL of 200 μg/mL recombinant human MAdCAM-1/Fc (R&D Systems) was added to make a total volume of 100 μL, and the mixture was incubated at room temperature for 30 minutes. Subsequently, 1900 μL of BD Phosflow Lyse/Fix Buffer 5× (BD Biosciences) was added, and hemolysis and fixation were performed at 37° C. for 10 minutes. After centrifugation for 5 minutes, the supernatant was removed, and 2000 μL of RPMI-1640 medium supplemented with 10% inactivated fetal bovine serum (hereinafter referred to as medium) was added. After centrifugation for 5 minutes, the supernatant was removed and washed. After washing again with the medium, 50 μL of Brilliant Stain Buffer (BD Biosciences), 1.25 μL of MAdCAM-1 FITC (Hycult Biotech), 5 μL of CD4 PE (BD Biosciences), 2.5 μL of CD45RO APC (UCHL1) (BioLegend), 5 μL of CD3 BV421 (SK7) (BioLegend), and 2.5 μL of CD45 BV510 (HI30) (BioLegend) were added, and the mixture was incubated for 30 minutes. After washing with Stain Buffer (BSA) (BD Biosciences), the percentage of MAdCAM-1-positive cells among CD3-positive CD4-positive cells was measured using flow cytometry.
The percentage of MAdCAM-1-positive cells among CD3-positive CD4-positive cells was calculated by subtracting each measured value from the measured value when MAdCAM-1/Fc was not added as a control. The percentage of MAdCAM-1-positive cells among CD3-positive CD4-positive cells before administration of Compound (1) or placebo was set as 0% inhibition, and the MAdCAM-1 binding inhibition rate at each blood collection time point was obtained. Furthermore, the concentration IC50 that causes 50% binding inhibition and the concentration IC90 that causes 90% binding inhibition were calculated.
The MAdCAM-1 binding inhibition rate (PD) of lymphocytes in plasma was evaluated using collected blood, and the correlation with the plasma concentration (PK) of Compound (2) was plotted (FIG. 5).

Cc1cc(=O)n(-c2ccc(C[C@H](NC(=O)c3cc(F)c(NS(=O)(=O)c4ccc(NC(=O)C(C)(C)C)cc4)cc3F)C(=O)O)cn2)c(=O)n1C [Compound (2)]
plasma concentration of Compound (2) ([1]; 0.5 h post-dose): Below quantitation limit
plasma concentration of Compound (2) ([1]; 1 h post-dose): Below quantitation limit
increase of plasma concentration (trough value) after 24 hours, Day 10 of repeated vs single-dose administration ([2]; Compound (1) 400 mg L-SEDDS once daily): more than threefold
trough concentration relative to IC90 ([2]; once-daily administration of L-SEDDS (Compound (1) 400 mg)): maintained above IC90 (6.9 mg/mL) from the second day of administration
increase of plasma concentration (trough value) 12 hours after the second dose on Day 10 of repeated vs single-dose administration ([3]; Compound (1) 200 mg C-SEDDS twice daily): about eightfold
trough concentration relative to IC90 ([3]; twice-daily administration of C-SEDDS (Compound (1) 200 mg)): maintained above IC90 (6.9 mg/mL) from the third day of administration
estimated Cmax on the 10th day of repeated administration [4]: 3.63 ng/mL
predicted trough value (200 mg twice daily) relative to measured trough value (400 mg once daily) [5]: about twice
IC90 ([6]; ex vivo, blood of healthy adult males given Compound (1), read-out: IC90 (plasma concentration that causes 90% MAdCAM-1 binding inhibition)): 6.9 ng/mL (≈ 9.88 nM)
IC90 ([6]; read-out: IC90): 6.9 ng/mL (≈ 9.88 nM)
IC50 ([6]; ex vivo, blood of healthy adult males given Compound (1), read-out: IC50 (plasma concentration that causes 50% MAdCAM-1 binding inhibition) (converted)): 2.72 nM
correlation of plasma concentration (PK) with MAdCAM-1 binding inhibition rate (PD) ([6]; ex vivo, collected blood, FIG. 5): correlated
